Measurements reported in patent US20130209386A1, “NEW USES” (EVOCUTIS PLC, priority 2010, published 2013).
≈ marks a conversion by molar mass, not a printed value. Where “and” joins values, the source holds several entries; their conditions need not be identical. Equal entries are not always repeated. Where two headings read alike, the source gives them in different places. Marks after values point to notes of the source that are not given here. Values belong to the compound of their own block, whether it stands above or below them.

Legend:
[1] = tested on: Propionibacterium acnes NCTC 737; experiment: Minimum inhibitory concentration (MIC) assay; type: cell-based
Method: (§1) The first test organism used was Propionibacterium acnes NCTC 737. This is a propionibacterial strain and is the type strain of the genus; it is fully susceptible to antibiotics. The propionibacteria are clinically significant due to their involvement in acne. They are also opportunistic pathogens in compromised hosts. Activity observed against these micro-organisms is expected to be a good predictor of activity against acne.
(§2) The propionibacteria were cultured and maintained on Wilkins-Chalgren Anaerobe Medium (agar and broth) at pH 6.0; all cultures were incubated anaerobically at 37° C. for 72 hours.
(a) Minimum Inhibitory Concentration (MIC) Assay
This is a standard international method for quantitatively assessing the antimicrobial activity of a compound in a liquid medium. The method used a sterile 96-well microtitre plate, capable of holding about 200 μl of liquid per well. The wells contained liquid culture medium and ranges of decreasing concentrations of the relevant test compound in doubling dilutions (eg 1000, 500, 250, 125 . . . μg/ml, etc, down to 0.49 μg/ml). The culture media were as described above.
(§3) The wells were inoculated with a liquid suspension of freshly grown micro-organism and incubated under the conditions described above. After incubation, the microtitre plate was examined visually (with the aid of a light box) for cloudiness in each well, which would indicate microbial growth. The MIC value was recorded as the lowest concentration of test compound required to inhibit microbial growth, ie the lowest concentration for which the liquid in the well remained clear.
The assays included both negative (culture medium with no micro-organisms) and positive (culture medium plus diluting solvent plus micro-organism) controls.

[2] = tested on: Propionibacterium acnes NCTC 737; experiment: Minimum biocidal concentration (MBC) assay; type: cell-based
Method: as §1, §2
(b) Minimum Biocidal Concentration (MBC) Assay
This assay, normally carried out after an MIC assay, determines the minimum concentration of a compound that is lethal to the micro-organism being tested.
(§4) These samples were then individually sub-cultured on antibiotic-free agar medium, under the incubation conditions described above. Following incubation they were examined visually for microbial growth.

[3] = tested on: Propionibacterium acnes NCTC 737; experiment: Disc diffusion assay (DDA) and synergy disc diffusion assay (SDDA); type: cell-based
Method: (c) Disc Diffusion Assay (DDA)
This is an internationally recognised standard method for qualitatively assessing the antimicrobial activity of a compound or combination of compounds.
A sterile paper disc was impregnated with a sample of the test compound(s) in a suitable solvent (or applied neat) and 30 minutes allowed for any of the solvents to evaporate (where possible). The disc was then placed on an agar plate onto which the test micro-organism had been inoculated. The plate was then incubated under the conditions described above, following which it was examined visually for signs of microbial growth. […] The diameter of this zone of “inhibition” was measured using a ProtoCOL™ automated zone sizer (Synbiosis, Cambridge, UK).
(d) Synergy Disc Diffusion Assay (SDDA)
This is a variation on the DDA method, in which two compounds are tested together for their combined antimicrobial activity.
Two test compounds A and B were placed on a single paper disc and the above described DDA procedure repeated.
The two compounds were then subjected in combination to the SDDA assay described above.
MIC/MBC experiments were performed in duplicate and (S)DDA experiments in triplicate.
The tropolone was dissolved in ethanol.

P. acnes NCTC 737 [4] = experiment: Fixed ratio combination MIC/MBC assays; type: cell-based, Propionibacterium acnes
Method: (§5) (g) Fixed Ratio Combination MIC/MBC Assays
(§6) This method used a sterile 96-well microtitre plate, capable of holding about 200 μl of liquid per well. The wells contained liquid culture medium and ranges of decreasing concentrations of the relevant test compounds alone in doubling dilutions (eg 1000, 500, 250, 125 . . . μg/ml, etc. down to 0.49 μg/ml) or doubling dilutions of a combination of two compounds mixed initially at a fixed concentration ratio (based on molarity in this instance). The culture medium was as described above.
as §3, with “compounds alone or concentrations of the mixture of the two test compounds” for “compound”, “the” for “the lowest concentration for which the”
(§7) The assays were conducted in triplicate and included both negative (culture medium with no micro-organisms) and positive (culture medium plus diluting solvent(s) plus micro-organism) controls.
as §4
(§8) Thus for each mixture tested, the FIC for compound A (FICA)=MIC for (A+B)/MIC for A alone. Similarly the FIC for compound B (FICB)=MIC for (A+B)/MIC for B alone. The overall FICI=FICA+FICB.
(§9) FBC & FBCI were calculated in the same manner using recorded MBC values.

C. striatum NCTC 764 = experiment: Fixed ratio combination MIC/MBC assays; type: cell-based, Corynebacterium striatum
Method: The second test organism used was Corynebacterium striatum NCTC 764. This is a Gram-positive bacterium which is closely related to organisms (aerobic diphtheroids of the genus Corynebacterium) that cause body odour (Guillet et al, Eur J Dermatol, 2000 Jan-Feb, 10(1): 41-2). The C. striatum was cultured and maintained on Mueller-Hinton Medium (agar and broth) at pH 7.3 (±0.1); cultures were incubated aerobically at 37° C. for 18-24 hours.
as §5, §6
as §3, with “compounds alone or concentrations of the mixture of the two test compounds” for “compound”, “the” for “the lowest concentration for which the”
as §7, §4, §8, §9

P. acnes NCTC 737 [5] = experiment: Synthetic sebum time-to-kill assay; type: cell-based, Propionibacterium acnes; details: copper sulphate 97.5 mg/L, tropolone 195 mg/L; for Log10 change: T0 to T4 hours; for Log10 cfu/ml (T4 hours): after 4 hours, lowest detectable level 3.0; for Log10 cfu/ml (T0 hours): start count
Method: (f) Synthetic Sebum Time-to-Kill Assay This quantitative assay was designed to assess the level of kill of a P. acnes culture in a synthetic sebum (non-aqueous environment) over a defined time period (in this case 4 hours). A culture of P. acnes NCTC 737 was inoculated into a synthetic sebum (a liquid mixture of lipid components designed to simulate human sebum) containing the relevant test compound dissolved in 1-octanol. […] The plates were then incubated as described above and subsequently examined visually for growth. The numbers of viable microbial colonies on the plates were counted with the aid of a colony counter and converted to colony-forming units per ml (cfu/ml) using the appropriate dilution factor. Cell counts conducted in the absence of test compound acted as positive controls. Mixtures of tropolone and copper (II) sulphate, containing various relative proportions of the two actives, were subjected to synthetic sebum time-to-kill assays against P. acnes NCTC 737, as described above. All assays were conducted in triplicate.

Structure (SMILES): CC(=O)[O-].[Cu+] [Copper (I) acetate]
MIC [1]: 7.8 µg/mL
MBC [2]: 31.25 µg/mL
MIC/MBC ratio [2]: 0.25
(S)DDA with tropolone [3]: 32.35 mm
DDA zone of inhibition diameter [3]: 32.14 mm
SDDA area increase [3]: 1.29%
SDDA increase [3]: 0.21 mm
MBC (P. acnes NCTC 737 [4]; compound alone): 23.3 µg/mL
MIC (P. acnes NCTC 737 [4]; compound alone): 23.3 µg/mL
MBC (C. striatum NCTC 764): >62.8** μg/ml
MIC (C. striatum NCTC 764): >62.8** μg/ml

Structure (SMILES): CC(=O)[O-].CC(=O)[O-].[Cu+2] [Copper (II) acetate]
MIC [1]: 3.9 µg/mL
MBC [2]: 125 µg/mL
MIC/MBC ratio [2]: 0.03
(S)DDA with tropolone [3]: 30.80 mm
DDA zone of inhibition diameter [3]: 25.63 mm
SDDA area increase [3]: 44.39%
SDDA increase [3]: 5.17 mm
MBC (P. acnes NCTC 737 [4]; compound alone): 46 µg/mL and 34.6 µg/mL
MBC (C. striatum NCTC 764): >46.5** μg/ml
MIC (C. striatum NCTC 764): >46.5** μg/ml

Structure (SMILES): O.O.O.O.O.O=S(=O)([O-])[O-].[Cu+2] [Copper sulphate, copper (II) sulphate pentahydrate]
MIC [1]: 15.6 µg/mL
MBC [2]: 125 µg/mL
MIC/MBC ratio [2]: 0.125
(S)DDA zone of inhibition diameter [3]: 17.3 (±2.59) mm
Log10 change (P. acnes NCTC 737 [5]): −1.53 Log10
Log10 cfu/ml (T4 hours) (P. acnes NCTC 737 [5]): 6.58 Log10 cfu/ml
Log10 cfu/ml (T0 hours) (P. acnes NCTC 737 [5]): 8.11 Log10 cfu/ml
MBC (P. acnes NCTC 737 [4]; compound alone): >40.9** μg/ml and 60.8 μg/ml
MIC (P. acnes NCTC 737 [4]; compound alone): 20.4 µg/mL and 30.4 µg/mL
MBC (C. striatum NCTC 764): >40.9** μg/ml
MIC (C. striatum NCTC 764): >40.9** μg/ml

MIC ([1]; Cutibacterium acnes, NCTC737, P. acnes NCTC 737, compound alone, read-out: MIC): 15.6 µg/mL (≈ 128 µM)
MIC (P. acnes NCTC 737 [4]; Cutibacterium acnes, NCTC737, compound alone, read-out: MIC): 31.2 µg/mL
MIC (P. acnes NCTC 737 [4]; compound alone): 62.5 µg/mL
Structure (SMILES): O=c1cccccc1O [Tropolone, 2-hydroxy-2,4,6-cycloheptatrien-1-one]
MBC ([2]; Cutibacterium acnes, NCTC737, P. acnes NCTC 737, compound alone, read-out: MBC): 250 µg/mL (≈ 2050 µM)
MIC/MBC ratio ([2]; P. acnes NCTC 737, compound alone): 0.06
zone of inhibition at 200 µg/disc ([3]; Cutibacterium acnes, NCTC737, 200 μg tropolone and/or 12.5 μg copper sulphate per disc, read-out: (S)DDA zone of inhibition diameter): 19.1 mm
zone of inhibition at 12.5 µg/disc ([3]; Cutibacterium acnes, NCTC737, compound alone, 12.5 μg per disc (gluconate, picolinate 25 μg; silicate 12.4 μg; chlorophyllin 200 μg), read-out: DDA zone of inhibition diameter): 13.2 mm
Log10 change (P. acnes NCTC 737 [5]): −0.31 Log10
Log10 cfu/ml (T4 hours) (P. acnes NCTC 737 [5]): 7.8 Log10 cfu/ml
Log10 cfu/ml (T0 hours) (P. acnes NCTC 737 [5]): 8.11 Log10 cfu/ml
MBC (P. acnes NCTC 737 [4]; Cutibacterium acnes, NCTC737, compound alone, read-out: MBC): > 62.5 µg/mL
MBC (C. striatum NCTC 764; C. striatum NCTC 764, compound alone): 62.5 µg/mL
MBC (C. striatum NCTC 764; Corynebacterium striatum, NCTC764, C. striatum NCTC 764, compound alone, read-out: MBC): > 62.5 µg/mL
